Experimental data published in patent publication US8158560B2, “Insecticidal arylpyrroline compounds” (Bayer CropScience AG, priority 2009, dated 2012).

Tests used:
Assay type in all cases: in vivo
[1] = tested on: Plutella xylostella 3rd instar larvae; assay: Plutella xylostella spray test (PLUTXY); details: PLUTMA; 0.8 ppm; 7 dat
Protocol: Plutella xylostella—Spray Test (PLUTXY)
Insect: Plutella xylostella 3rd instar larvae from own culture
Material: A-PET cup, A-PET lids
Plant: Broccoli 5 leaf stage
(§1) Solvent pre-mixture: Sorpol® SD: Sorpol® BDB:Dimethylformamide=3:3:14
10 mg a i. is solved with 0.05 ml solvent pre-mixture
(§2) Water for dilution contains RME and AS (1000 ppm each) or 0.1% of spreader. Solutions are diluted at the rate of 1:5 for limit concentration determination.
Procedure: Broccoli seedlings of 4-5 leaf stage planted in a vinyl pot (9 cm diameter) are sprayed with the solution. After drying half of the leaves of the plants are cut and put into a A-PET cup. Ten larvae of Plutella xylostella L3 are released in the cup and the dish is placed at 25° C. After 4 days another half leaf is cut and added to the dish. After the specified period of time mortality in % is determined according to the figures of mortality used for evaluation. • 1 larva dead: 20% Efficacy • 5 larvae dead: 100% Efficacy Adoxophyes honmai—Test (ADXPFA)

[2] = tested on: Spodoptera litura; assay: Biological Test Example 1: test against tobacco cutworm (Spodoptera litura) larvae, sweet potato leaf dip; details: foliar, 168 h, active compound concentration 100 ppm, third instar larvae, after 7 days, read-out: insecticidal activity
Protocol: (§3) Unless not mentioned otherwise, the test solutions were prepared as follows:
(§4) Containing as solvent: Dimethylformamide, 3 parts by weight; and as emulsifier: Polyoxyethylene alkyl phenyl ether, 1 part by weight
(§5) To prepare the test solution, 1 part by weight of an active compound is mixed with the above-mentioned amount of solvent containing the above-mentioned amount of emulsifier, and the mixture is diluted with water to the desired concentration.
Test Against Tobacco Cutworm (Spodoptera litura) Larvae
Leaves of sweet potato were immersed in the test solution at the appropriate concentration, and the leaves were dried in air. The leaves were then placed in a petri dish having a diameter of 9 cm, and ten Spodoptera litura at third instar larvae were released therein. The petri dishes were placed in a temperature-controlled chamber at 25° C.
After 2 days and 4 days more sweet potato leaves were added. After 7 days, the number of dead larvae was counted and the insecticidal activity was calculated. An insecticidal activity of 100% means that all larvae were killed, whereas an insecticidal activity of 0% means that no larva was killed. In the current test, the results of two petri dishes for each treatment were averaged.

[3] = tested on: Myzus persicae-resistant strain, mixed population; assay: Myzus persicae spray test (MYZUPE); details: 4 ppm, 6 dat, rating scheme
Protocol: Myzus persicae—Spray Test (MYZUPE)
Insect: Myzus persicae-resistant strain, mixed population
Plant: Eggplant seedling (Solanum melongena var. Senryo 2gou) 2 leaf age (4-5 weeks after sowing), transplanted into vinyl pots of 60 mm diameter
Solvent pre-mixture: Sorpol® SD: Sorpol® BDB:Dimethylformamide=3:3:14; 10 mg a.i. is solved with 0.05 ml solvent pre-mixture. Water for dilution contains RME and AS (1000 ppm each) or 0.1% of spreader. Solutions are diluted at the rate of 1:5 for limit concentration determination.
Procedure: 1 day before treatment aphids are inoculated onto the testing plants, about 50 aphids per leaf, 100 for 1 pot. A paper label is placed on each pot. Solutions are sprayed directly onto both insects and plants. After drying pots are placed in the greenhouse at 20° C.-25° C. and 50-60% relative humidity.
After the specified period of time the mortality in % is determined and the rate of death is calculated according to the following scheme/criteria: […]

[4] = tested on: organic phosphorus agent- and carbamate agent-resistant Myzus persicae; assay: Biological Test Example 4: test against organic phosphorus agent- and carbamate agent-resistant green peach aphid (Myzus persicae), spray on eggplant; details: active compound concentration 100 ppm; after 7 days
Protocol: as §3, §4, §5
Test Against Organic Phosphorus Agent- and Carbamate Agent Resistant Green Peach Aphid (Myzus persicae)
50 to 100 head of organic phosphorous agent- and carbamate agent-resistant Myzus persicae were inoculated to leaves of eggplant at two-leaf stage, planted in a pot of 6 cm in diameter. After one day, test solution at the appropriate concentration was sprayed thereon in a sufficient amount using a spray gun. After the spraying, the plant pot was placed inside a greenhouse, and after 7 days, the insecticidal rate was calculated.
An insecticidal activity of 100% means that all aphids were killed, whereas an insecticidal activity of 0% means that no aphid was killed.

[5] = tested on: Nephotettix cincticeps-MR, resistant strain, 3rd-4th instar nymphs; assay: Nephotettix cincticeps spray test (NEPHCI); details: 7 dat
Protocol: Nephotettix cincticeps-Spray Test (NEPHCl)
Insect: Nephotettix cincticeps-MR, resistant strain, 3rd-4th instar nymphs from own culture
Plant: Rice seedlings (Oryza sativa var. Tamanishiki)
Material: ST-method container (200 ml desiccant polystyrene bottle) with a hole in the bottom sealed with metal mesh. The lid has a pit inside to keep desiccant, and it is used to sow rice seeds. The bottle is used upside down as “cover”, the lid with seedling is called “base”. Plastic stand-board with magnet labels to line the ST Bases up (“Stand”)
Solvent pre-mixture: Sorpol® SD: Sorpol® BDB:Dimethylformamide=3:3:14 10 mg a i. is solved with 0.05 ml solvent pre-mixture. Water for dilution contains RME and AS (1000 ppm each) or 0.1% of spreader. Solutions are diluted at the rate of 1:5 for limit concentration determination.
Procedure: On a pit in the center of a base (originally the desiccant space) pieces of paper towel are placed. 20-30 germinated rice seeds are sown on the paper and moistened with water. The base is covered with a plastic cup and kept in an incubator at 30° C. for five days.
The base with rice seedlings is placed on the Stand. Each base is sprayed with the solution.
After drying twelve 3rd-4th instar nymphs of Nephotettix cincticeps-MR are put on the base and confined with the cover. The ST containers on the Stands are kept in the testing room at 25° C. and 50-60% r.h., 16L8D lighting conditions.
After the specified period of time mortality in % is determined by rating according to the following scheme/criteria: Counting living moving insects, calculate mortality in % by the formula: […]

[6] = tested on: Tetranychus urticae; assay: Biological Test Example 2: test against two-spotted spider mite (Tetranychus urticae), spray on kidney bean; details: 168 h, active compound concentration 100 ppm, adult mites, after 7 days, read-out: acaricidal activity
Protocol: as §3, §4, §5
Test Against Two-Spotted Spider Mite (Tetranvchus urticae)
50 to 100 adult mites of Tetranychus urticae were inoculated to leaves of kidney bean at two-leaf stage planted in a pot of 6 cm in diameter. After one day, test solution at the appropriate concentration was sprayed thereon in a sufficient amount using a spray gun. After the spraying, the plant pot was placed inside a greenhouse, and after 7 days, the acaricidal activity was calculated. An acaricidal activity of 100% means that all mites were killed, whereas an acaricidal activity of 0% means that no mite was killed.

[7] = tested on: Aulacophora femoralis; assay: Biological Test Example 3: test against cucurbit leaf beetle (Aulacophora femoralis), cucumber leaf dip; details: foliar, 168 h, active compound concentration 100 ppm, second instar larvae, after 7 days, read-out: insecticidal activity
Protocol: as §3, §4, §5
Test Against Cucurbit Leaf Beetle (Aulacophora femoralis)
Leaves of cucumber were immersed in the test solution at the appropriate concentration, and the leaves were dried in air. The leaves were then put in a plastic cup containing sterilized black soil and five Aulacophora femoralis at second instar larvae were released in the cup. The cups were placed in a temperature-controlled chamber at 25° C. After 7 days, the number of dead larvae was counted, and the insecticidal activity was calculated. An insecticidal activity of 100% means that all larvae were killed, whereas an insecticidal activity of 0% means that no larva was killed.

[8] = tested on: Bemisia tabacii biotype B; assay: Bemisia tabacii spray test (BEMIAR); details: 100 ppm, 14 dat, rating scheme b324
Protocol: Bemisia tabacii—Spray-Test (BEMIAR)
Insect: Bemisia tabacii biotype B
Plant: Tomato seedlings, 5 leaf stage in vinyl pots of 40 mm diameter
as §1
10 mg a.i. is solved with 0.05 ml solvent pre-mixture. Water for dilution contains RME and AS (1000 ppm each) or 0.1% of spreader. Solutions are diluted at the rate of 1:5 for limit concentration determination.
Procedure: Solutions are sprayed to the plants. After drying treated pots are placed in the greenhouse where breeding BEMIAR for an infection-time of 24 h. Then the plants is placed in the testing room at 25° C. and 50-60% r.h., 16L8D lighting conditions.
(§6) After the specified period of time mortality in % is determined according to the following scheme/criteria: […]

[9] = tested on: Aulacophora femoralis 2nd instar larvae; assay: Aulacophora femoralis spray test (AUACFE); details: 0.8 ppm, 6 dat, rating scheme b297
Protocol: Aulacophora femoralis—Spray Test (AUACFE)
Insect: Aulacophora femoralis 2nd instar larvae from own culture;
Material: PET cups with 5 ml soil and A-PET lids
Plant: Cucumber (Cucumis sativus var. Hanshiro), cotyledon stage; 1 plant per pot;
Solvent pre-mixture: Sorpol® SD: Sorpol® BDB:Dimethylformamide=3:3:14;
10 mg a.i. solved with 0.05 ml solvent pre-mixture. Water for dilution contains RME and AS (1000 ppm each) or 0.1% of spreader. Solutions are diluted at the rate of 1:5 for limit concentration determination.
Procedure: Solutions are sprayed onto a plant. After drying, plants are cut and put on the soil in the testing cup. Five larvae L2 are released into each testing cup.
The testing cup is covered with the lid and stored at 25° C. and 50-60% r.h., 16L8D lighting conditions.
After the specified period of time, the mortality in % is determined according to the following scheme/criteria: […]

[10] = tested on: Panonychus citri; assay: Panonychus citri spray test (METTCI); details: 4 ppm, 7 dat, rating scheme b306
Protocol: Panonychus citri—Spray Test (METTCI)
Plant: Citrus plants, ca 8 cm height
as §1
(§7) 10 mg a i. is solved with 0.05 ml solvent pre-mixture.
as §2
Procedure: 1 day before treatment mites were inoculated onto potted citrus plants, about 50 adults and some nymphs for 1 pot. The test solution is sprayed directly onto both mites and plants. After drying pots are stored at 25° C.
After the specified period of time mortality in % is determined by rating according to the following scheme/criteria.

[11] = tested on: Spodoptera litura L2 stage; assay: Spodoptera litura root soaking test (PRODLI); details: 20 ppm, 4 dat
Protocol: Spodoptera litura—Root Soaking Test (PRODLI)
Insect: Spodoptera litura L2 stage;
Material: Culture media bottles for hydroponics: Plastic (A-PET) cups for test, square type;
Plant: Broccoli 5 leaf stage (ca. 12 cm high), soil around the roots was washed off just before the test;
Solvent pre-mixture “Sorpol SD” for root soaking test;
Sorpol SD: Sorpol BDB:Dimethylformamide=3:3:140
Procedure: Test solutions are prepared in the bottles at the appropriate concentration. The test plant root is dipped into the test solution in the bottle and kept in a test room. After 3 days, ⅓ part of the leaves of the plants is cut and put into the A-PET cup.
Into each test cup five larvae L2 are released, the cup is covered with a lid and stored at 25° C. and at a relative humidity of 50-60% and under 16L8D lighting conditions.
After the specified period of time the mortality in % is determined and the rate of death is calculated.

[12] = tested on: Tetranychus urticae-S (sensible strain) mixed population; assay: Tetranychus urticae test (TETRUR); details: 0.16 ppm, 2 dat, rating scheme b334
Protocol: Tetranychus urticae—Test (TETRUR)
Insect: Tetranychus urticae-S (sensible strain) mixed population from own culture
Plant: Kidney bean seedlings (Phaseolus vulgaris var. Serena), 2 leaf stage (1 week after sowing)
as §1, §7, §2
Procedure: 1 day before treatment the apex parts of testing plants are pruned. Mites are inoculated onto the testing plants, about 20 adults per leaf, 40 adults and some nymphs for 1 pot. A paper label is placed on each pot. The solution is sprayed onto mites and plants. After drying pots are placed in the greenhouse, temperature 20° C.-25° C.
as §6

Structure (SMILES) | Efficacy/day(s) of treatment [1] [%/7 dat] | Efficacy/day(s) of treatment [3] [%/6 dat] | Efficacy/day(s) of treatment ([5]; 100 ppm) [%/7 dat] | Efficacy/day(s) of treatment [8] [%/14 dat] | Efficacy/day(s) of treatment [11] [%/4 dat] | Efficacy/day(s) of treatment [12] [%/2 dat] | also measured
Cc1cc(C2=NCC(c3cc(C(F)(F)F)cc(C(F)(F)F)c3)(C(F)(F)F)C2)ccc1C(=O)NC1CS(=O)(=O)C1 (stereo not drawn) [Compound 1-21, 4-{3-[3,5-Bis(trifluoromethyl)phenyl]-3-(trifluoromethyl)-3,4-dihydro-2H-pyrrol-5-yl}-N-(1,1-dioxidothietan-3-yl)-2-methylbenzamide] | 100 | 98 | 90 | 98 |  |  | pest or weed control at 100 ppm [2]: 100%; insecticidal activity [4]: 100%; pest or weed control at 100 ppm [6]: 100%; pest or weed control at 100 ppm [7]: 100%
Cc1cc(C2=NOC(c3cc(C(F)(F)F)cc(C(F)(F)F)c3)(C(F)(F)F)C2)ccc1C(=O)NC1CS(=O)(=O)C1 (stereo not drawn) [Compound C-1, reference compound] | 80 | 60 | 70 | 60 |  |  | 
Cc1cc(C2=NOC(c3cc(C(F)(F)F)cc(C(F)(F)F)c3)(C(F)(F)F)C2)ccc1C(=O)NC1CSC1 (stereo not drawn) [ExNo A21 of WO 2009/080250, reference compound] |  | 60 |  | 60 |  |  | Efficacy/day(s) of treatment [9]: 50%/6 dat; Efficacy/day(s) of treatment ([5]; 20 ppm): 0%/7 dat; Efficacy/day(s) of treatment [10]: 0%/7 dat
Cc1cc(C2=NCC(c3cc(Cl)cc(Cl)c3)(C(F)(F)F)C2)ccc1C(=O)NC1CSC1 (stereo not drawn) [ExNo A49 of WO 2010/020522] |  |  |  |  | 100 | 90 | 
Cc1cc(C2=NOC(c3cc(Cl)cc(Cl)c3)(C(F)(F)F)C2)ccc1C(=O)NC1CSC1 (stereo not drawn) [ExNo A-4 of WO 2009/080250] |  |  |  |  | 80 | 60 | 
